Assay results taken from patent publication US8802597B2, “Herbicidal pyrimidines” (E I du Pont de Nemours and Company, priority 2003, dated 2014).

Columns and labels:
Type in all cases: in vivo
[1] = system: grape (Vitus vinifera) vines; experiment: Test G post-directed application; details: 1500 g ai/ha, scale 0 to 100
Description: (§1) At a different time, established container-grown grape (Vitus vinifera) vines, and olive (Olea europaea) and orange (Citrus sinensis) trees were treated with some of the test chemicals formulated in the same manner and applied to the soil surface and the lower 5 cm of the plant vines or trunks (post-directed application). Plants ranged in height from 30 to 100 cm. The applications were made using a hand sprayer delivering a volume of 990 L/ha. Treated plants and controls were maintained in a greenhouse for 28 days, after which time the treated plants were compared to controls and visually evaluated.
(§2) Plant response ratings, summarized in Table G, are based on a scale of 0 to 100 where 0 is no effect and 100 is complete control. A dash (-) response means no test result.

[2] = system: orange (Citrus sinensis) trees; experiment: Test G post-directed application; details: 1500 g ai/ha, scale 0 to 100
Description: as §1, §2

[3] = system: olive (Olea europaea) trees; experiment: Test G post-directed application; details: 900 g ai/ha, scale 0 to 100
Description: as §1, §2

[4] = system: purple nutsedge (Cyperus rotundus); experiment: Test G pre/postemergence
Outline: (§3)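 Test chemicals in non-phytotoxic solvent with surfactant applied preemergence to sown seeds or nutlets and postemergence to plants 2–18 cm tall (1- to 4-leaf stage). Greenhouse-held 12–21 days, then visually rated against untreated controls on a 0 (no effect) to 100 (complete control) scale.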

[5] = system: common sowthistle (Sonchus oleraceous); experiment: Test G pre/postemergence
Outline: as §3

[6] = system: Russian thistle (Salsola kali); experiment: Test G pre/postemergence
Outline: as §3

[7] = system: wheat (TRZAW; Triticum aestivum); experiment: Test K postemergence; details: 15 days
Description: (§4) Seeds of plant species selected from sulfonylurea herbicide-susceptible (SU-susceptible) and sulfonylurea herbicide-resistant (SU-resistant) catchweed bedstraw (GALAP; Galium aparine) and wheat (TRZAW; Triticum aestivum) were treated with postemergence applications of test chemicals formulated in a non-phytotoxic solvent mixture which included a surfactant. Plants were treated at the 2-3 leaf stage and 2 whorl stage for wheat and catchweed bedstraw, respectively. Treated plants and controls were maintained in a controlled growth environment for 15 days after which time all species were compared to controls and visually evaluated. Plant response ratings, summarized in Table K, are based on a scale of 0 to 100 where 0 is no effect and 100 is complete control. A dash (-) response means no test result.

[8] = system: sulfonylurea herbicide-susceptible (SU-susceptible) catchweed bedstraw (GALAP; Galium aparine); experiment: Test K postemergence; details: 15 days
Description: as §4

[9] = system: sulfonylurea herbicide-resistant (SU-resistant) catchweed bedstraw (GALAP; Galium aparine); experiment: Test K postemergence; details: 15 days
Description: as §4

[10] = system: sugarcane (Saccharum officinarum); experiment: Test G sugarcane pre/postemergence; details: Postemergence, scale 0 to 100
From the text: Also at a different time, seed pieces (nodes) of sugarcane (Saccharum officinarum) were planted and treated preemergence and/or postemergence with some of the test chemicals formulated in the same manner. Treated plants and controls were maintained in a greenhouse for 14 days, after which time the treated plants were compared to controls and visually evaluated.
as §2

[11] = Preemergence, 62 g ai/ha, scale 0-100
[12] = Preemergence, 125 g ai/ha, scale 0-100
[13] = Preemergence, 250 g ai/ha, scale 0-100
[14] = Preemergence, 500 g ai/ha, scale 0 to 100
[15] = Postemergence, 250 g ai/ha, scale 0 to 100
[16] = Postemergence, 16 g ai/ha, scale 0 to 100
[17] = Postemergence, 31 g ai/ha, scale 0 to 100
[18] = Postemergence, 62 g ai/ha, scale 0 to 100
[19] = Postemergence, 125 g ai/ha, scale 0 to 100
[20] = Preemergence, 16 g ai/ha, scale 0-100
[21] = Preemergence, 31 g ai/ha, scale 0-100
[22] = Postemergence, 8 g ai/ha, scale 0 to 100
[23] = Preemergence, 8 g ai/ha, scale 0-100

CCOC(=O)c1nc(C2CC2)nc(N)c1Cl [Compound 4, ethyl 6-amino-5-chloro-2-cyclopropyl-4-pyrimidinecarboxylate]
Plant response rating, Grape [1]: 100 | Plant response rating, Orange [2]: 75 | Plant response rating, Olive [3]: 50 | Plant response rating, Nutsedge, Purple [4, 11]: 40 | Plant response rating, Nutsedge, Purple [4, 12]: 100 | Plant response rating, Nutsedge, Purple [4, 13]: 100 | Plant response rating, Nutsedge, Purple [4, 14]: 100 | Plant response rating, Sowthistle [5, 11]: 100 | Plant response rating, Sowthistle [5, 12]: 100 | Plant response rating, Sowthistle [5, 13]: 100 | Plant response rating, Sowthistle [5, 14]: 100 | Plant response rating, Russian Thistle [6, 12]: 100 | Plant response rating, Russian Thistle [6, 13]: 100 | Plant response rating, Russian Thistle [6, 14]: 100

COC(=O)c1nc(C2CC2)nc(N)c1Cl [Compound 9, methyl 6-amino-5-chloro-2-cyclopropyl-4-pyrimidinecarboxylate]
Plant response rating (0 to 100 scale) ([7]; 4 g a.i./ha): 0 | Plant response rating (0 to 100 scale) ([7]; 8 g a.i./ha): 20 | Plant response rating (0 to 100 scale) ([7]; 16 g a.i./ha): 25 | Plant response rating (0 to 100 scale) ([7]; 31 g a.i./ha): 38 | Plant response rating (0 to 100 scale) ([7]; 62 g a.i./ha): 38 | Plant response rating (0 to 100 scale) ([7]; 125 g a.i./ha): 40 | Plant response rating (0 to 100 scale) ([8]; 4 g a.i./ha): 75 | Plant response rating (0 to 100 scale) ([8]; 8 g a.i./ha): 100 | Plant response rating (0 to 100 scale) ([8]; 16 g a.i./ha): 100 | Plant response rating (0 to 100 scale) ([8]; 31 g a.i./ha): 100 | Plant response rating (0 to 100 scale) ([8]; 62 g a.i./ha): 100 | Plant response rating (0 to 100 scale) ([8]; 125 g a.i./ha): 100 | Plant response rating (0 to 100 scale) ([9]; 4 g a.i./ha): 100 | Plant response rating (0 to 100 scale) ([9]; 8 g a.i./ha): 100 | Plant response rating (0 to 100 scale) ([9]; 16 g a.i./ha): 100 | Plant response rating (0 to 100 scale) ([9]; 31 g a.i./ha): 100 | Plant response rating (0 to 100 scale) ([9]; 62 g a.i./ha): 100 | Plant response rating (0 to 100 scale) ([9]; 125 g a.i./ha): 100 | Plant response rating, Sugarcane ([10]; 250 g ai/ha): 7 | Plant response rating, Sugarcane ([10]; 500 g ai/ha): 17 | Plant response rating, Sugarcane ([10]; 31 g ai/ha): 0 | Plant response rating, Sugarcane ([10]; 62 g ai/ha): 0 | Plant response rating, Sugarcane ([10]; 125 g ai/ha): 0

Nc1nc(C2CC2)nc(C(=O)OCc2ccccc2)c1Br [Compound 22, phenylmethyl 6-amino-5-bromo-2-cyclopropyl-4-pyrimidinecarboxylate]
Plant response rating, Nutsedge, Purple [4, 15]: 15 | Plant response rating, Nutsedge, Purple [4, 16]: 0 | Plant response rating, Nutsedge, Purple [4, 17]: 0 | Plant response rating, Nutsedge, Purple [4, 18]: 0 | Plant response rating, Nutsedge, Purple [4, 19]: 0 | Plant response rating, Nutsedge, Purple [4, 20]: 0 | Plant response rating, Nutsedge, Purple [4, 21]: 0 | Plant response rating, Nutsedge, Purple [4, 11]: 30 | Plant response rating, Nutsedge, Purple [4, 12]: 40 | Plant response rating, Nutsedge, Purple [4, 13]: 50 | Plant response rating, Sowthistle [5, 15]: 100 | Plant response rating, Sowthistle [5, 16]: 75 | Plant response rating, Sowthistle [5, 17]: 85 | Plant response rating, Sowthistle [5, 18]: 95 | Plant response rating, Sowthistle [5, 19]: 100 | Plant response rating, Sowthistle [5, 20]: 35 | Plant response rating, Sowthistle [5, 21]: 75 | Plant response rating, Sowthistle [5, 11]: 90 | Plant response rating, Sowthistle [5, 12]: 100 | Plant response rating, Sowthistle [5, 13]: 100 | Plant response rating, Russian Thistle [6, 15]: 100 | Plant response rating, Russian Thistle [6, 16]: 95 | Plant response rating, Russian Thistle [6, 17]: 100 | Plant response rating, Russian Thistle [6, 18]: 100 | Plant response rating, Russian Thistle [6, 19]: 100 | Plant response rating, Russian Thistle [6, 20]: 65 | Plant response rating, Russian Thistle [6, 21]: 75 | Plant response rating, Russian Thistle [6, 11]: 95 | Plant response rating, Russian Thistle [6, 12]: 100 | Plant response rating, Russian Thistle [6, 13]: 100

CCOC(=O)c1nc(-c2ccc(Cl)cc2)nc(N)c1Cl [Compound 64, ethyl 6-amino-5-chloro-2-(4-chlorophenyl)-4-pyrimidinecarboxylate]
Plant response rating, Nutsedge, Purple [4, 22]: 0 | Plant response rating, Nutsedge, Purple [4, 16]: 35 | Plant response rating, Nutsedge, Purple [4, 17]: 35 | Plant response rating, Nutsedge, Purple [4, 18]: 35 | Plant response rating, Nutsedge, Purple [4, 23]: 0 | Plant response rating, Nutsedge, Purple [4, 20]: 0 | Plant response rating, Nutsedge, Purple [4, 21]: 0 | Plant response rating, Nutsedge, Purple [4, 11]: 0 | Plant response rating, Sowthistle [5, 22]: 65 | Plant response rating, Sowthistle [5, 16]: 80 | Plant response rating, Sowthistle [5, 17]: 80 | Plant response rating, Sowthistle [5, 18]: 80 | Plant response rating, Sowthistle [5, 23]: 0 | Plant response rating, Sowthistle [5, 20]: 0 | Plant response rating, Sowthistle [5, 21]: 35 | Plant response rating, Sowthistle [5, 11]: 90 | Plant response rating, Russian Thistle [6, 23]: 0 | Plant response rating, Russian Thistle [6, 21]: 0 | Plant response rating, Russian Thistle [6, 11]: 0

Nc1nc(C2CC2)nc(C(=O)[O-])c1Cl.[Na+] [Compound 77, 6-amino-5-chloro-2-cyclopropyl-4-pyrimidinecarboxylic acid monosodium salt]
Plant response rating, Nutsedge, Purple [4, 15]: 40 | Plant response rating, Nutsedge, Purple [4, 16]: 0 | Plant response rating, Nutsedge, Purple [4, 17]: 0 | Plant response rating, Nutsedge, Purple [4, 18]: 0 | Plant response rating, Nutsedge, Purple [4, 19]: 0 | Plant response rating, Nutsedge, Purple [4, 20]: 100 | Plant response rating, Nutsedge, Purple [4, 21]: 100 | Plant response rating, Nutsedge, Purple [4, 11]: 100 | Plant response rating, Nutsedge, Purple [4, 12]: 100 | Plant response rating, Nutsedge, Purple [4, 13]: 100 | Plant response rating, Sowthistle [5, 15]: 95 | Plant response rating, Sowthistle [5, 16]: 75 | Plant response rating, Sowthistle [5, 17]: 90 | Plant response rating, Sowthistle [5, 18]: 90 | Plant response rating, Sowthistle [5, 19]: 95 | Plant response rating, Sowthistle [5, 20]: 80 | Plant response rating, Sowthistle [5, 21]: 100 | Plant response rating, Sowthistle [5, 11]: 100 | Plant response rating, Sowthistle [5, 12]: 100 | Plant response rating, Sowthistle [5, 13]: 100 | Plant response rating, Russian Thistle [6, 20]: 85 | Plant response rating, Russian Thistle [6, 11]: 100 | Plant response rating, Russian Thistle [6, 13]: 100
